Six compounds from US20100196355A1, “Immunophilin Ligands and Methods for Modulating Immunophilin and Calcium Channel Activity” (Wyeth, priority 2007, published 2010) can be followed below.

One data set has as its system FKBPs. Description: Size exclusion binding of [14C]-1 to purified recombinant protein. On the set-up: species or system human. The settings on record: 10 μM. The text has this: (§1) Using Gateway cloning methods developed by Invitrogen (Carlsbad, Calif.), cacnb1/CACNB 1, cacnb4/CACNB4fkbp3/FKBP25, fkbp4/FKBP52, ppid, ppif and fkbp8/FKBP38 genes were cloned into the pDEST17 (N-His6 tag) vector. The His6-CACNB1: TGG548TAA were generated from pDEST17-CACNB1 using QuikChange site-directed mutagenesis kit (Stratagene, LaJolla, Calif.). The His6 tagged protein was purified on a Ni-NTA column (Qiagen, Valencia, Calif.).

Another data set deals with T1, CACNB4 (Homo sapiens, UniProt O00305).
T1 construct: His6 (N); made in house
The data set is described as above. The settings on record: 10 μM.
Text: as §1

The target in the next data set is T2, FKBP38/Ca2+/CaM (Homo sapiens, UniProt Q14318).
T2 construct: His6 (N); made in house
The description is as above. Conditions: 10 μM; 2 mM Ca2+ and 5 μM CaM.
Text: as §1

Another data set deals with T3, His6-CACNB1:TGG548TAA (Homo sapiens, UniProt Q02641).
T3 construct: His6 (N); made in house
The description is as above. Conditions: 10 μM.
Text: as §1

The next data set deals with T4, PPID (Homo sapiens, UniProt Q08752).
T4 construct: His6 (N); made in house
The description is as above. Conditions: 10 μM.
Text: as §1

The target of the next data set is T5, PPIF (Homo sapiens, UniProt P30405).
T5 construct: His6 (N); made in house
The data set is described as above. Conditions: 10 μM.
Text: as §1

Data set [1] deals with cultured rat cortical neurons. Description: Neuronal survival assay (neurofilament ELISA). Conditions: siRNA-transfected rat cortical neurons; neurofilament ELISA. The data set is classed as cell-based. As for the experimental part:
Cultures were fixed for 30 min with 4% paraformaldehyde at 37° C. Nonspecific binding was blocked by incubating with PBS containing 0.3% Triton X-100 and 5% fetal bovine serum (FBS) for 45 min. Cultures were then incubated overnight at 4° C. with an anti-neurofilament (200 kD) monoclonal antibody (1:1000, clone RT-97, Chemicon, Temecula, Calif.). After washing, a peroxidase-conjugated secondary antibody (1:1000, Vector Labs, Burlingame, Calif.) was applied for 2 h. After three washes, the peroxidase substrate K-BlueMax (Neogen, Lexington, Ky.; Young et al., 1999) was added to the cultures and incubated for 10 min on an orbital shaker. The peroxidase substrate is highly soluble in the K-BlueMax solution. Optical density is then readily measured using a Molecular Devices Spectramax Plus colorimetric plate reader at 650
(§2) Briefly, cortical neuron cultures were prepared from embryonic day 15 (E15) rat embryos (Sprague-Dawley, Charles River Laboratories, Wilmington, Mass.). The embryos were collected, their brains were removed, and the cortices were dissected out in ice-cold phosphate-buffered saline (PBS) without Ca^2+ and Mg^2+. Dissected pieces of cortical tissue were pooled together and transferred to an enzymatic dissociation media containing 20 IU/ml papain in Earle's balanced salt solution (Worthington Biochemical, Freehold, N.J.) and incubated for 30 min at 37° C. After enzymatic dissociation, the papain solution was aspirated and the tissue mechanically triturated with a fire-polished Pasteur pipette in complete media [Neurobasal Medium with B-27 supplement (Gibco, Grand Island, N.Y.), 100 IU/ml penicillin, 100 μg/ml streptomycin, 3.3 μg/ml aphidicolin, 0.5 mM glutamate] containing 2,000 IU/ml DNase and 10-mg/ml ovomucoid protease inhibitor.
For orientation: In an ELISA, binding on a coated surface is turned into a signal by an enzyme label.

The next data set deals with cortical neurons. Briefly: Neurite outgrowth in cortical neurons. The format is cell-based, rat. The settings on record: siRNA-transfected rat cortical neurons, 24 h; control lamin A/C siRNA. As for the experimental part: Cortical neurons were fixed using 2% paraformaldehyde for 5 min followed by 4% paraformaldehyde for 5 min. Cells were incubated in blocking solution (0.2% Triton-X+1.5% normal goat serum in PBS) followed by primary (anti-neuronal class III β-tubulin (TUJ1) (Covance Innovative Antibodies, Berkeley, Calif.) and secondary antibody (Alexa Fluor 488 goat anti-mouse) (Molecular Probes, Carlsbad, Calif.). Each step was performed at room temperature for 1 hr. Total neurite outgrowth for each condition was analyzed using the Neuronal Profiling Bioapplication on an ArrayScan HCS Reader (Cellomics, Pittsburgh, Pa.).
as §2

A further data set concerns the target His6-tagged FKBP12 (Homo sapiens, UniProt P62942). Description: [3H]-FK506 binding on Ni-chelated FLASH plate. Conditions: read-out: FKBP 12 (Kd). The protocol:
(§3) Reactions were carried out in triplicate at 25° C. for 30 min. Kd were calculated using methods described by Carreras (Anal. Biochem. 298, 57-61 (2001)).

The target of the next data set is T6, His6-tagged FKBP52 (Homo sapiens, UniProt Q02790).
T6 construct: made in house
T6 sequence (Q02790 1-459): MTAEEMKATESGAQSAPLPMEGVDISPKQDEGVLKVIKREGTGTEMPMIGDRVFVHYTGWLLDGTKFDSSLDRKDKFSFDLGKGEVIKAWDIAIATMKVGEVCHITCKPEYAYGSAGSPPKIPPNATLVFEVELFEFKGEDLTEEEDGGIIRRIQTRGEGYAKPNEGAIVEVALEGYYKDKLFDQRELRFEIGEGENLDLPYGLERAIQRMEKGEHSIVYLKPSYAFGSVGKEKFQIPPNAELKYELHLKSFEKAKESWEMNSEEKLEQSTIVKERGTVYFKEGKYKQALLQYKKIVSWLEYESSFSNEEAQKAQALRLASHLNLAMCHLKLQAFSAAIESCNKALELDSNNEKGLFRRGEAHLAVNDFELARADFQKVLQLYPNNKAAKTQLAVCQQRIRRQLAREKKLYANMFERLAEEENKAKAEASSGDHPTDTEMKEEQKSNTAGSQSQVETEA
Briefly: [3H]-FK506 binding on Ni-chelated FLASH plate. The settings on record: read-out: FKBP 52 (Kd). As for the experimental part: as §3

The next data set has as its system Human CD4+ T cells. Briefly: Immunosuppression assay: IL-2 stimulated CD4+ T-cell proliferation. The format is cell-based. The settings on record: Homo sapiens, CD4+ T cell. The protocol:
Human CD4^+ T cells were purified by negative selection from peripheral blood lymphocytes using RosetteSep as per manufacture's instructions (StemCell Technologies, Inc. Vancouver, British Columbia). Tosyl-activated magnetic microspheres (Dynal, Great Neck, N.Y.) were coated with anti-CD3 Ab (1 μg/10^7 microspheres), and anti-CD28Ab ([…]) as described in Blair et al. J. Immunol., 160:12, 1998. […] Protein-coated microspheres were added to purified CD4+T cells (2×10^6cells/mL, ratio 1 bead: 1 cell) and activated for 72 hours in RPMI, 10% fetal calf serum, 2 mM glutamine media. Cells were harvested, washed, and cultured overnight in fresh media and re-stimulated with IL-2 as described in Bennett et al., J. Immunol. 170:711, 2003. […] Seventy-two hours after culture re-stimulation, plates were pulsed with 1 μCi/well tritiated thymidine and incubated for a 6-16 hour period.

Data set [2] relates to Ca2+ channel in F-11 cells. Briefly: Whole-cell patch clamp recording of Ca2+ currents in F-11 cells. Conditions: 5 μM in the bath for 2 hrs. The data set is classed as cell-based, rat and mouse hybrid. The protocol: The whole-cell configuration of the patch-clamp technique was used to record calcium currents from the cells at room temperature using an EPC-9 amplifier (HEKA, Instrutech Corp.) with the acquisition and analysis program Pulse-PulseFit from HEKA (Lambrecht, Germany). Electrodes were fabricated using a P-87 puller (Sutter Instrument). […] The standard bath recording solution is Ca^2+ and Mg^2+ free HBSS (pH 7.4) containing 10 mM HEPES, 10 mM dextrose, and 4 mM BaCl2. Currents were filtered at 3 kHz, and the inward Ca^2+ currents were recorded from cells held at −90 mV with 10 mV depolarizing steps from −80 mV to 60 mV for 50 ms.
Background: Patch clamp records ionic current or voltage across a cell membrane.

T5 sequence (P30405 30-207): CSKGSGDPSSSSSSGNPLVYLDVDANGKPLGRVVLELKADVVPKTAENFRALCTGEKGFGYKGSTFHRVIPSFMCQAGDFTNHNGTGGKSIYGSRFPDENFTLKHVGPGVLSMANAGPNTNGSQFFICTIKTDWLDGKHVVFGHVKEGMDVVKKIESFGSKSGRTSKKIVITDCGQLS
T4 sequence (Q08752 whole entry): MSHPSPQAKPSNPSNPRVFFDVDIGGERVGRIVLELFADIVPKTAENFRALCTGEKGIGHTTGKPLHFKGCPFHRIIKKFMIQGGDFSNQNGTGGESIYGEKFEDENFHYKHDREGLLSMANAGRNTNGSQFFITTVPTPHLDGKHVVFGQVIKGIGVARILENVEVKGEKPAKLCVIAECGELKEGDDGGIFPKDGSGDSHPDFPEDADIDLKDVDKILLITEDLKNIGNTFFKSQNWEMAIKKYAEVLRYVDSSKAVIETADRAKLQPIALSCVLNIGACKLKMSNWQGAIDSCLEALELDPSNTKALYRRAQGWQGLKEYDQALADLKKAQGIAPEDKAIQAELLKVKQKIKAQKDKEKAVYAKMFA
T3 sequence (Q02641 1-547 limits assumed): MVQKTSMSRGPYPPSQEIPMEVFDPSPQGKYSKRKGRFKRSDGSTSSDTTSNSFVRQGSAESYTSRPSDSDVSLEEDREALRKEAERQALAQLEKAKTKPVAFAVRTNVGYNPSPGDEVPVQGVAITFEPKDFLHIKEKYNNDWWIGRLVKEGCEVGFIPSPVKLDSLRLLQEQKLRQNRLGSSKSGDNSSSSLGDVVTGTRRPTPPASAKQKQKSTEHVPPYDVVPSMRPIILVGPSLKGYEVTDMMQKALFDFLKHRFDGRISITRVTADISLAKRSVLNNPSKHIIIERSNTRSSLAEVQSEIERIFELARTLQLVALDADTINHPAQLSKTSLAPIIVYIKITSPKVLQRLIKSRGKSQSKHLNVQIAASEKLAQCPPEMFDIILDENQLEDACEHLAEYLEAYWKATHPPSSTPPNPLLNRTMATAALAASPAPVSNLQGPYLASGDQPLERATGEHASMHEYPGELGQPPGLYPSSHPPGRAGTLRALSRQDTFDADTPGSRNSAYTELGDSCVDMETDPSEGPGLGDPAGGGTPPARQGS
T2 sequence (Q14318 whole entry): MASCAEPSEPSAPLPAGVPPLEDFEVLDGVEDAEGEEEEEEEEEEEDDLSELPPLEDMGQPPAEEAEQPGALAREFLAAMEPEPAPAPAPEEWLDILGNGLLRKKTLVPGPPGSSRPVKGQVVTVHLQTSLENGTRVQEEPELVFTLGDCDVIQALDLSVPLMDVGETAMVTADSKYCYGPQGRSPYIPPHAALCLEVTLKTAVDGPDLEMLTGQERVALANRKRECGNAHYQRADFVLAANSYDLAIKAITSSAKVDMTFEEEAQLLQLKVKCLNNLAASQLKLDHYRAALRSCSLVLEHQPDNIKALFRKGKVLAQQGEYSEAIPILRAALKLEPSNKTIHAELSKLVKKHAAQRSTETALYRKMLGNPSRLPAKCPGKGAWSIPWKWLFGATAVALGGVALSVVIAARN
Chain of His6-tagged FKBP12 (P62942 whole entry): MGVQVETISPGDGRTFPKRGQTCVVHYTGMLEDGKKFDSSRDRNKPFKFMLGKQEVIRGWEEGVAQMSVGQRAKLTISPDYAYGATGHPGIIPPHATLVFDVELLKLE

Regarding “9,27-dihydroxy-3-{2-[4-hydroxy-3-methoxycyclohexyl ]-1-methylethyl}-10,21-dimethoxy-6,8,12,14,20,26-hexamethyl-37-phenyl-4,9,10,12,13,14,15,18,21,22,23,24,25,26,27,32,33,34,34a-nonadecahydro-3H-23,27-epoxy-18,15-(epoxyimino)pyrido[2,1-c][1,4]oxazacyclohentriacontine-1,5,11,28,29(6H, 31H)-pentone [Rapamycin analogue I]”, the “binding of [14C]-1 to FKBPs” value with FKBPs is on record as “well”. The “binding of [14C]-Compound 1 to CACNB4” value on CACNB4 was “negligibly”. Moreover, on FKBP38/Ca2+/CaM, the “binding of [14C]-1 to FKBP38/Ca2+/CaM” value is “negligibly”. The “binding of [14C]-Compound 1 to mutant His6-CACNB1:TGG548TAA” value at His6-CACNB1:TGG548TAA is reported as “weakly”. Moreover, the “binding of [14C]-1 to PPID” value at PPID is on record as “weakly”. Also, the “binding of [14C]-1 to PPIF” value on PPIF is reported as “negligibly”.
Turning to “CACNB1 siRNA: siRNA, sense GGAGAAGUACAAUAAUGACTT (SEQ ID NO:15), antisense GUCAUUAUUGUACUUCUCCTT (SEQ ID NO:16) (chemistry not given here)”, in data set [1], the “percent neuronal survival compared to control” value is 80±3 % of control. In the data set on cortical neurons, the “total neurite outgrowth compared to control” value is “essentially unchanged”.
Take `CCC(C)(C)C(=O)C(=O)N1CCC[C@H]1C(=O)OCCCc1cccnc1` [GPI-1046, reference compound]: the equilibrium dissociation constant (Kd) (as a rule, the constant that tells how readily two partners part at equilibrium) on His6-tagged FKBP12 was above 110 nM; at His6-tagged FKBP52, above 12 nM.
As to `CO[C@H]1C[C@@H]2CC[C@@H](C)[C@@](O)(O2)C(=O)C(=O)N2CCCC[C@H]2C(=O)O[C@H]([C@H](C)C[C@@H]2CC[C@@H](O)[C@H](OC)C2)CC(=O)[C@H](C)/C=C(\C)[C@@H](O)[C@@H](OC)C(=O)[C@H](C)C[C@H](C)/C=C/C=C/C=C/1C` [Rapamycin, reference compound], the midpoint of inhibition in the data set with Human CD4+ T cells, the IC50, lay at 5 nM. In addition, the Kd at His6-tagged FKBP52 was found to be 1.4 ± 0.1 nM.
With `C=CC[C@@H]1/C=C(\C)C[C@H](C)C[C@H](OC)[C@H]2O[C@@](O)(C(=O)C(=O)N3CCCC[C@H]3C(=O)O[C@H](/C(C)=C/[C@@H]3CC[C@@H](O)[C@H](OC)C3)[C@H](C)[C@@H](O)CC1=O)[C@H](C)C[C@@H]2OC` [FK506, reference compound], in [2], the “Ca2+ current density” value is 2.9+/−0.1 pA/pF and the “decrease of Ca2+ current density vs vehicle” value worked out at 55%.
As to “FKBP52 siRNA: siRNA, sense CCUAGCUAUGCUUUUGGCATT (SEQ ID NO:17), antisense UGCCAAAGCAUAGCUAGGTT (SEQ ID NO:18) (chemistry not given here)”, the “percent neuronal survival compared to control” value in data set [1] is recorded as 112±2 % of control. Moreover, the “total neurite outgrowth compared to control” value in the data set on cortical neurons is reported as 125±12 % of control.
